Test results: US8486900B2, “Method for preparing a Centella asiatica extract rich in madecassoside and in terminoloside” (Bayer Consumer Care AG, priority 2002, dated 2013)

Key:
IL-1α = assay: IFN-γ-induced intracellular IL-1α production by normal human keratinocytes; assay type: cell-based; details: for IL-1α (intracellular): K02-1H6, IFN-γ 1000 U/ml, 48 h + 24 h
Method: (§1) In order to evaluate the anti-inflammatory activity of terminoloside, of madecassoside and of the mixture of heterosides, we studied the modulatory effects of these three active agents with respect to the production and release of proinflammatory epidermal cytokines (IL-1α, IL-8, PGE-2) by human keratinocytes in culture, subjected to an irritative stress induced either with interferon-gamma (IFN-γ) or with PMA. Human keratinocytes were isolated from human skin. The cells were cultured in serum-free KGM medium (Keratinocyte Growth Medium, sold by the company Clonetics®), according to the usual techniques set up in the laboratory, at 37° C. in a humid air-CO2 (95%-5%) atmosphere. The cells were seeded into 25 cm^2 flasks and passaged regularly before reaching confluency. The principle of the assay is based on evaluating the production of proinflammatory cytokines by human keratinocytes, in response to an irritative stress. The method is based on measuring the intracellular amount of IL-1α and of the amounts of IL-8 and of PGE-2 released into the extracellular medium by keratinocytes cultured in the absence and in the presence of the products being studied, and stimulated even with interferon-gamma (IFN-γ) or with PMA (phorbol-12-myristate-13-acetate).
(§2) The study was carried out on keratinocytes isolated from foreskin of young children (strain K02-1H6).
(§3) 1. Treatment of the cells for 48 h with the product being studied before induction of the irritative stress; 2. induction of the irritative stress: IFN-γ (1000 U/ml); 3. incubation of the “activated” cells, for 24 h, in the presence of the product being studied; 4. assay: IL-8 (extracellular) and IL-1α (intracellular). Cellular protein assay.
Tables 34 to 36 below group together the intracellular amounts of IL-1α after activation of the cells (+IFN-γ), and the basal amount (−IFN-γ). The IFN-γ-induced production of IL-1α and the anti-inflammatory activity (AIA) were calculated for each concentration according to: Il-1α production=IL-1α(+IFN)−IL-1α(−IFN) AIA=[(IL-1α production(control cells)−IL-1α production(treated cells)/IL-1α production(control cells)]×100

IL-8 = assay: IFN-γ-induced release of IL-8 by normal human keratinocytes; assay type: cell-based; details: for IL-8: Example 12, K02-1H6, IFN-γ 1000 U/ml, 48 h + 24 h
Method: as §1, §2, §3
Tables 32 to 34 below group together the amounts of IL-8 obtained after activation of the cells (+IFN-γ), and also the basal amounts (−IFN-γ). The IFN-γ-induced production of IL-8 and the anti-inflammatory activity (AIA) were calculated, for each concentration of active agent, according to: AIA=[(IL-8(control cells+IFN)−[…]/IL-8(control cells+IFN)]×100

Compound: CC1OC(O[C@@H]2C(CO)OC(OCC3OC(OC(=O)C4CC(C)(C)CC5C6=CCC7C(CC(O)C8C(C)(CO)C(O)C(O)CC78C)C6(C)CCC45)[C@@H](O)C(O)[C@@H]3O)[C@@H](O)C2O)[C@@H](O)C(O)[C@H]1O (stereo partly drawn) [Terminoloside, 1-[O-α-L-rhamnopyranosyl-(1-4)-O-β-glucopyranosol-(1-6)]-O-β-D-glucopyranose 2α,3β,6β,23-tetrahydroxyolea-12-en-28-oate]
- IL-1α production (+IFN minus −IFN) (IL-1α; 0.1 mg/ml): 6.07
- IL-1α production (+IFN minus −IFN) (IL-1α; 0.25 mg/ml): 5.37
- IL-1α production (+IFN minus −IFN) (IL-1α; 0.5 mg/ml): 4.60
- IL-1α production (+IFN minus −IFN) (IL-1α; 1 mg/ml): 2.31
- inhibition at 100 µg/mL (IL-1α; Homo sapiens, Keratinocyte, IFN-γ 1000 U/ml, 0.1 mg/ml, read-out: Anti-inflammatory activity (%), IL-1α): 17%
- inhibition at 250 µg/mL (IL-1α; Homo sapiens, Keratinocyte, IFN-γ 1000 U/ml, 0.25 mg/ml, read-out: Anti-inflammatory activity (%), IL-1α): 27%
- inhibition at 500 µg/mL (IL-1α; Homo sapiens, Keratinocyte, IFN-γ 1000 U/ml, 0.5 mg/ml, read-out: Anti-inflammatory activity (%), IL-1α): 37%
- inhibition at 1000 µg/mL (IL-1α; Homo sapiens, Keratinocyte, IFN-γ 1000 U/ml, 1 mg/ml, read-out: Anti-inflammatory activity (%), IL-1α): 68%
- IL-1α (intracellular) (IL-1α; 0.1 mg/ml): 8.78 pg/μg prot
- IL-1α (intracellular) (IL-1α; 0.25 mg/ml): 8.08 pg/μg prot
- IL-1α (intracellular) (IL-1α; 0.5 mg/ml): 7.31 pg/μg prot
- IL-1α (intracellular) (IL-1α; 1 mg/ml): 5.02 pg/μg prot
- IL-8 (IL-8; 0.1 mg/ml): 0.862 pg/μg prot
- IL-8 (IL-8; 0.25 mg/ml): 0.762 pg/μg prot
- IL-8 (IL-8; 0.5 mg/ml): 0.708 pg/μg prot
- IL-8 (IL-8; 1 mg/ml): 0.492 pg/μg prot
- inhibition at 100 µg/mL (IL-8; Homo sapiens, Keratinocyte, Example 12, IFN-γ 1000 U/ml, 0.1 mg/ml, read-out: Anti-inflammatory activity (%), IL-8): 0%
- inhibition at 250 µg/mL (IL-8; Homo sapiens, Keratinocyte, Example 12, IFN-γ 1000 U/ml, 0.25 mg/ml, read-out: Anti-inflammatory activity (%), IL-8): 9%
- inhibition at 500 µg/mL (IL-8; Homo sapiens, Keratinocyte, Example 12, IFN-γ 1000 U/ml, 0.5 mg/ml, read-out: Anti-inflammatory activity (%), IL-8): 15%
- inhibition at 1000 µg/mL (IL-8; Homo sapiens, Keratinocyte, Example 12, IFN-γ 1000 U/ml, 1 mg/ml, read-out: Anti-inflammatory activity (%), IL-8): 42%
